Experiments:
[1] = target: T1, malonyl-CoA decarboxylase prepared from rat heart (Rattus norvegicus, UniProt Q920F5); assay: In vitro MCD inhibitory assay (spectrophotometric, 96 well); format: biochemical; settings: concentration causing 50% inhibition of MCD activity, read-out: IC50 of the MCD inhibitors
T1 construct: malonyl-CoA decarboxylase prepared from rat heart; from tissue; host or cells: rat heart
T1 sequence (Q920F5 39-492): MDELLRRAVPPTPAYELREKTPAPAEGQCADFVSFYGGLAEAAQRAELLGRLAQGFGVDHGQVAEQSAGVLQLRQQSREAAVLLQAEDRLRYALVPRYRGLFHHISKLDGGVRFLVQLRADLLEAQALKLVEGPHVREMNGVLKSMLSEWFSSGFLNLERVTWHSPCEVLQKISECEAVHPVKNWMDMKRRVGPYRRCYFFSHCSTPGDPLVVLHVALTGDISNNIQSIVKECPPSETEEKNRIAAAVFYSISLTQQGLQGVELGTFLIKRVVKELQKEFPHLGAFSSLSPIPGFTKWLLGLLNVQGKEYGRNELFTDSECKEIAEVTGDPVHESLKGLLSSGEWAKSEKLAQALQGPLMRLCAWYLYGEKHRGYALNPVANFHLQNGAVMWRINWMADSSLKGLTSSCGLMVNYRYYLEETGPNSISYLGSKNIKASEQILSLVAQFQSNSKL
Method: The following reagents are added into a 96 well titer plate: Tris-HCl buffer, 20 μL; DTE, 10 μL; I-malate, 20 μL; NAD, 10 μL; NADH, 25 μL; water, 80 μL; malic dehydrogenase, 5 μL. The contents are mixed and incubated for 2 min followed by the addition of 5 μL of citrate synthase.

[2] = system: human breast cancer cells; settings: breast carcinoma cells; Pizer et al.; cited from earlier work

SMILES | IC50 [1] [nM] | also measured
O=C(O)CCCCN(C(=O)c1ccncc1)c1ccc(C(O)(C(F)(F)F)C(F)(F)F)cc1 [Example 1-3] | 7 | 
O=S(=O)(Nc1ccc(C(O)(C(F)(F)F)C(F)(F)F)cc1)N1CCCCC1 [Example 2-5] | 604 | 
O=C(NCc1ccccc1)Nc1ccc(C(O)(C(F)(F)F)C(F)(F)F)cc1 [Example 3, N-benzyl-N′-{4-[2,2,2-trifluoro-1-hydroxy-1-(trifluoromethyl)ethyl]phenyl}urea] |  | melting point: 163 to 164 °C (dec.)
CCN(CCC#N)C(=O)N(CCCCC(=O)O)c1ccc(C(O)(C(F)(F)F)C(F)(F)F)cc1 [Example 4-94] | 9 | 
O=C(N1CCOCC1)N(CCCCc1nnn[nH]1)c1ccc(C(O)(C(F)(F)F)C(F)(F)F)cc1 [Example 4-114] | 10 | 
O=C(N1CCOCC1)N(CCCF)c1ccc(C(O)(C(F)(F)F)C(F)(F)F)cc1 [Example 4-130] | 36 | 
N#Cc1cccc(CS(=O)(=O)c2nccn2-c2ccc(C(O)(C(F)(F)F)C(F)(F)F)cc2)c1 [Example 6-1] | 18 | 
OC(c1ccc(-n2nc(-c3ccccn3)cc2-c2ccccn2)cc1)(C(F)(F)F)C(F)(F)F [Example 8-4] | 557 | 
Cc1cc(-c2ccncc2)n(-c2ccc(C(O)(C(F)(F)F)C(F)(F)F)cc2)n1 [Example 8-28] | 223 | 
CCCCCCCCCCCCCCOc1ccc(C(=O)O)o1 [TOFA, 5-(tetradecyloxy)-2-furoic acid] |  | malonyl-CoA level, of the control [2]: 60%

Source: patent US7385063B2, “Method for preparing imidazole derivatives” (Chugai Seiyaku Kabushiki Kaisha, priority 2001, dated 2008)
